Data as given in patent US7964598B2 (The J. David Gladstone Institutes, priority 1995, dated 2011).
Where “and” joins values, the source holds several entries; their conditions need not be identical. Equal entries are not always repeated. Entries after “also recorded” stand apart in the source; their conditions may differ.

Columns and labels:
YFP-apoE4-CFP = biological target: T1, YFP-apoE4-CFP (Homo sapiens, UniProt P02649, C130R); assay: Cell-based FRET assay, YFP-apoE4-CFP; conditions: 5-20 μM; for ratio of FRET to CFP emission in the cells expressing YFP-apoE4-CFP: intracellular; for ratio of FRET to CFP emission in media of YFP-apoE4-CFP cells: medium
T1 construct: vector signal peptide (pFLAG-CMV3) (N); FLAG (N); expressed in transfected cells
T1 sequence (P02649 19-317 C130R): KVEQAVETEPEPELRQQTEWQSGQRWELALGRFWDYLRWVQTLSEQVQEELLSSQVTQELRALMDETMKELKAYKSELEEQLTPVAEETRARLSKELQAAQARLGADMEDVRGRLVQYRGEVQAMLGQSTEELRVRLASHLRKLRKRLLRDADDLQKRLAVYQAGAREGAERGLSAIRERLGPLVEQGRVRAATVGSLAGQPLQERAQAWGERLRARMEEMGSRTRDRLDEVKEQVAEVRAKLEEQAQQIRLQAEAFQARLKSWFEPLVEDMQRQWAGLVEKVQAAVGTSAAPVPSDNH
Excerpt: (§1) Xu et al. (2004) J. Biol. Chem. 279:25511-25516. FRET—the non-radioactive transfer of photon energy from an excited fluorophore (donor) to another fluorophore (acceptor)—occurs only when the donor and acceptor are in close proximity (<100 Å). Thus, this approach can be used to measure nanometer scale distances.
(§2) Xu et al. (2004) J. Biol. Chem. 279:25511-25516. The constructs are depicted schematically in FIG. 29.
(§3) Since the emission spectrum of CFP (460-520 nm) overlaps with the excitation spectrum of YFP (480-520 nm), FLEXstation (Molecular Devices) can be used to measure FRET in living cells expressing YFP-apoE3-CFP or YFP-apoE4-CFP in a high throughput manner. […] Thus, the ratio of FRET to CFP emission in cells expressing YFP-apoE4-CFP is much higher than that in those expressing YFP-apoE3-CFP (FIG. 31). […] Since the FLEXstation can read FRET in both cells and the culture media treated without or with various small molecules, this assay allows one to know whether a small molecule affects apoE4 domain interaction only in the medium (“medium FRET”) or also inside the cell (“intracellular FRET”). In addition, after measurement of the intracellular FRET, the cells can be incubated further with MTT to determine the cytotoxicity of the compound. Thus, the cell-based FRET assay can simultaneously provide three sets of data-intracellular FRET, medium FRET, and cytotoxicity.
(§4) Quantifying FRET in Transfected Neuro-2a Cells—Stably transfected Neuro-2a cells expressing YFP-apoE3-CFP or YFP-apoE4-CFP at similar levels were selected by fluorescence activated cell sorter (FACS). YFP and CFP images of transfected cells were acquired with the Meta Detector, and their fluorescence intensities were analyzed with the mounted computer. The FRET signal was calculated as the ratio of YFP to CFP fluorescence intensity under CFP excitation. For each YFP-apoE-CFP construct, the FRET signal was measured in at least 12 cells from different fields.
(§5) Quantifying FRET in the Culture Medium—Neuro-2a cells stably expressing YFP-apoE3-CFP or YFP-apoE4-CFP and wildtype cells were grown in T175 flasks to 90% confluence and incubated with serum-free minimum essential medium containing N2 supplement for 24 h. The conditioned medium (20 ml/flask) was concentrated about 20-fold with Centriplus-YM-10 concentrators (Amicon, Bedford, Mass.), dialyzed against PBS, illuminated at the CFP excitation wavelength (430 nm), and scanned for emission spectrum. The FRET signal was calculated as the ratio of emission at 525 nm (YFP) to that at 475 nm (CFP). Conditioned medium from cells expressing apoE3-CFP or apoE4-CFP was used to determine baseline fluorescence in the absence of FRET.

Neuro-2a cells [1] = assay: Aβ-induced lysosomal leakage (cytosolic β-hexosaminidase); assay type: cell-based, mouse
Method: The cytosolic fraction was obtained by ultracentrifugation, and the cytosolic β-hexosaminidase activity was measured.
Quantitation of the lysosomal enzyme β-hexosaminidase activity in the cytosol indicates lysosomal leakage. […] After incubation the cells were washed and cytosolic fractions were isolated as described in Materials and Methods. The enzymatic activity of β-hexosaminidase was assayed in 20 μg of cytosolic protein for each sample.
Lysosomal leakage was quantitated by assaying cytosolic 0-hexosaminidase activity. […] Conditioned media were prepared as described above. Apoptosis was quantitated by measuring DNA fragmentation.

YFP-apoE4-CFP cells = assay: MTT cytotoxicity assay; assay type: cell-based, mouse; conditions: 5-10 μM
Excerpt: as §3

Neuro-2a cells [2] = assay: Aβ-induced apoptosis (DNA fragmentation assay); assay type: cell-based, mouse
Method: DNA Fragmentation Assay—DNA fragmentation of apoptotic cells was determined with Cell Death Detection ELISA kits (Roche, Indianapolis, Ind.).
FIG. 38. […] Control cells were not treated with Aβ1-42. Apoptotic cell death was measured with a DNA fragmentation assay. Values are the mean±S.D. of three separate experiments.
FIGS. 39A and 39B. […] Lysosomal leakage was quantitated by assaying cytosolic 0-hexosaminidase activity. […] Conditioned media were prepared as described above. Apoptosis was quantitated by measuring DNA fragmentation.

YFP-apoE3-CFP = biological target: T2, YFP-apoE3-CFP (Homo sapiens, UniProt P02649); assay: Cell-based FRET assay, YFP-apoE3-CFP; conditions: for ratio of FRET to CFP emission in cells expressing YFP-apoE3-CFP: intracellular; for ratio of FRET to CFP emission in media of YFP-apoE3-CFP cells: medium
T2 construct: vector signal peptide (pFLAG-CMV3) (N); FLAG (N); expressed in transfected cells
T2 sequence (P02649 19-317): as the sequence (P02649 19-317 C130R) above, with R112C counted along it
Excerpt: as §1, §2, §3, §4, §5

Water solubility = assay type: physicochemical
apoE3 [3] = assay: Aβ production assay, B103-APP cells incubated with apoE3; assay type: cell-based, rat; conditions: FIG. 22
Method: Aβ production assay. Stable neuroblastoma B103 cell lines transfected with a wildtype hAPP cDNA construct (B 103-APP) were selected by growing them in Dulbecco's modified Eagle's medium (DMEM) containing 10% fetal calf serum (FBS) and 400 μg/ml G418. A cell line expressing APP at similar levels in mouse brains has been identified by RNase protection assay (RPA) and was used in the studies described below. To determine Aβ production, B103-APP cells were incubated with serum-free minimal essential medium (MEM) containing N2 supplements with or without apoE isoforms for 24 h at 37° C. After incubation, 50 μl of medium was collected and assayed for Aβ levels with an ELISA method. The cells were lysed, and cellular proteins were determined by the Lowry method. AP production was normalized to cellular protein.
Cell Culture. Rat neuroblastoma B103 cells stably expressing human wildtype APP (hAPP695wt) (Xu et al. ((1999) Proc. Natl. Acad. Sci. USA 96:7547-7552; Esposito, et al. (2004) J. Neurochem. 91:1260-1274) were generated in Dr. Lennart Mucke's laboratory at the Gladstone Institute of Neurological Disease and maintained in Dulbecco's modified Eagle's medium (DMEM) (GIBCO, Grand Island, N.Y.) containing 400 μg/ml G418, 10% fetal bovine serum, and 5% horse serum at 37° C. Twenty-four hours after plating into 48-well plates (1×10^5 cells per well), cells were washed twice with serum-free DMEM and cultured for another 24 h in DMEM containing 1% N-2 supplement (GIBCO) to induce differentiation. The cells were treated with either β-VLDL (25 μg/ml cholesterol), recombinant human apoE isoform-enriched β-VLDL (7.5 μg/ml apoE and 25 μg/ml cholesterol), or recombinant human apoE (7.5 μg/ml apoE) in fresh DMEM containing 1% N-2 supplement for an additional 24 h. In some experiments, RAP (25 nM or 1 μM) was added to the cells 1 h before apoE treatment.
Aβ Assay. Aβ secreted into the medium was detected with a sandwich enzyme-linked immunosorbent assay (ELISA), using mAb 266 as a capturing antibody and 3D6 as a detecting antibody, as described. Johnson-Wood et al. ((1997) Proc. Natl. Acad. Sci. USA 94:1550-1555). Aβ was quantified from a standard curve (Aβ42; Bachem, Torrance, Calif.) and normalized by total cellular protein.

B103 cells = assay: Toxicity to B103 cells; assay type: cell-based, rat; conditions: at the micromole level
apoE3 [4] = biological target: T3, apoE3 (Homo sapiens, UniProt P02649); assay: Emulsion binding assay, apoE3; conditions: follow-up assay
T3 construct: made in house
T3 sequence (P02649 19-317): as the sequence (P02649 19-317 C130R) above, with R112C counted along it
Method: (§6) Preparation of emulsion particles. Triolein (160 mg) and L-alpha-Phosphatidylcholine (40 mg) are combined and dried under nitrogen. After the addition of 8 mls of buffer (10 mM Tris, 100 mM KCl, 1 mM EDTA, pH 8.0), the mixture is sonicated in a water bath to obtain a heterogeneous mix of emulsion particles. The particles are harvested by ultracentrifugation (TLA 100.2 rotor, 30,000 rpm for 30 minutes) and the subsequent lipid cake is removed by tube slicing and resuspended in 100 μt 20 mM Phosphate Buffer (PB). Triolein and phospholipid content are measured and total emulsion particle concentration is determined.
(§7) Radiolabelling Freshly denatured and renatured Apolipoprotein E3 and E4 are radiolabelled using Bolton-Hunter Reagent [^125I] (ICN). Specific Activity is determined using Lowry method and Gamma 8000 counter.
(§8) Binding Affinity Assay. […] In glass tubes, 25 μg of protein (with iodinated tracer) was reduced with 1% β-mercaptoethanol. Two hundred and fifty μg of emulsion particles and 2.5 μl of compound (10 mM stock) were added and the final mixture was brought up to 250 μl with 20 mM phosphate buffer (PB). The reaction mixture was then incubated in a 37° C. water bath for 2 hours before being transferred to 1.5 ml ultracentrifuge tubes. Finally, 50 μl of 60% sucrose was mixed with the sample and 400 μl 20 mM PB was carefully layered on top. Using a TLA 100.2 rotor, the tube was spun at 30,000 rpm for 30 minutes and subsequently cut to separate the floating emulsion particle layer from the free protein at the bottom of the tube. These fractions were then combined with the respective half of the actual tube and counted using a Gamma-8000. […] Protein-only assays yielded 94.5-96.6% of protein accumulated in the bottom portion of the tube. In emulsion particle-only assays, 94% of emulsion particles accumulated in the top portion of the tube.
(§9) Preparation of Emulsion Particles and VLDL Binding Affinity Assay. VLDL-like emulsion particles were prepared using triolein (160 mg) and L-alpha-phosphatidylcholine (40 mg), as described. Dong and Weisgraber (1996) supra; and Dong et al. (1994) J. Biol. Chem. 269:22358-22365.

apoE4 = biological target: T4, apoE4 (Homo sapiens, UniProt P02649, C130R); assay: Emulsion binding assay for domain interaction, apoE4
T4 construct: made in house
T4 sequence (P02649 19-317 C130R): as the sequence (P02649 19-317 C130R) above
Method: as §6, §7, §8, §9

[5] = follow-up assay, second E4 control
[6] = initial assay, 2.5 μl of compound (10 mM stock) in 250 μl, 37° C. 2 hours, listed as 3-butyl-1-ethyl-5-(2-(3-sulfobutyl-benzo(1,3)oxazo, potassium salt))

| ratio of FRET to CFP emission in the cells expressing YFP-apoE4-CFP (YFP-apoE4-CFP) | ratio of FRET to CFP emission in media of YFP-apoE4-CFP cells (YFP-apoE4-CFP) | SMILES | lysosomal leakage, cells with medium alone or medium containing apoE3 plus Aβ1-42 (Neuro-2a cells [1]) | apoE4 potentiation of Aβ-induced lysosomal leakage (Neuro-2a cells [1]; 5 μM, apoE4 conditioned medium, Aβ1-42 20 μM) | cytotoxicity (MTT assay) (YFP-apoE4-CFP cells) | apoptosis, cells with medium alone or medium containing apoE3 plus Aβ1-42 (Neuro-2a cells [2]) | apoE4 potentiation of Aβ-induced apoptosis (Neuro-2a cells [2]; apoE4 conditioned medium, Aβ1-42) | ratio of FRET to CFP emission in cells expressing YFP-apoE3-CFP (YFP-apoE3-CFP) | ratio of FRET to CFP emission in media of YFP-apoE3-CFP cells (YFP-apoE3-CFP) | water solubility (Water solubility) | effect on apoE3 (Aβ production) (apoE3 [3]) | toxicity to B103 cells (B103 cells) | E3 + compound, % bound (apoE3 [4]) [%] | E3 + compound, % free (apoE3 [4]) [%] | E4 + cpd n = 3, % bound (apoE4; follow-up assay) [%] | E4 + cpd n = 3, % free (apoE4; follow-up assay) [%] | E4 control, % bound (apoE4; [5]) [%] | E4 control, % free (apoE4; [5]) [%] | E4 + cpd, % bound (apoE4; [6]) | E4 + cpd, % free (apoE4; [6]) |
| --- | --- | --- | --- | --- | --- | --- | --- | --- | --- | --- | --- | --- | --- | --- | --- | --- | --- | --- | --- | --- |
| decreased significantly | decreased significantly | CCN(CC)c1ccc(/N=N\c2cc(S(=O)(=O)O)cc3cc(S(=O)(=O)O)cc(O)c23)c(O)c1 [GIND-28] | no significant effect | block; also recorded: abolish | did not cause significant cytotoxicity | no significant effect | block; also recorded: abolish | none of these compounds altered significantly | none of these compounds altered significantly | – | – | – | – | – | – | – | – | – | – | – |
| – | – | CCCCN1C(=O)/C(=C/C=C2/Oc3ccccc3N2CCCCS(=O)(=O)[O-])N(CC)C1=S.[K+] [GIND-105] | no significant effect | – | did not cause significant cytotoxicity | no significant effect | – | – | – | water-soluble | no effect | no significant toxicity | 30 | 70 | 57 | 43 | 45 | 55 | 28% and 21% | 72% and 79% |
| decreased significantly | decreased significantly | Cc1cc(Cl)cc2sc(-c3sc4cc(Cl)cc(C)c4c3OS(=O)(=O)O)c(OS(=O)(=O)O)c12 [GIND-111] | – | – | did not cause significant cytotoxicity | – | – | none of these compounds altered significantly | none of these compounds altered significantly | – | – | – | – | – | – | – | – | – | – | – |
